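The compound was tested at five concentrations on cells cultured in 96-well plates, with a 48-hour exposure period. GI50: concentration for 50% inhibition of growth.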 Active and inactive are the calls of the source. Rule as the data show it: active = GI50 up to about 1.1 µM and inactive = higher.
How the values were obtained:
Assay in all cases: NCI tumour cell line growth inhibition, 48 h
SK-MEL-5 = test system: SK-MEL-5
LOX IMVI = test system: LOX IMVI
U-251 = test system: U-251
NCI-H522 = test system: NCI-H522
EKVX = test system: EKVX
NCI-H460 = test system: NCI-H460
OVCAR-3 = test system: OVCAR-3
SF-295 = test system: SF-295
UACC-257 = test system: UACC-257
UO-31 = test system: UO-31
CCRF-CEM = test system: CCRF-CEM
HCT-116 = test system: HCT-116
Malme-3M = test system: Malme-3M
RPMI-8226 = test system: RPMI-8226
HCT-15 = test system: HCT-15
M14 = test system: M14
HCC 2998 = test system: HCC 2998
UACC-62 = test system: UACC-62
SF-268 = test system: SF-268
OVCAR-8 = test system: OVCAR-8

SMILES	GI50 (SK-MEL-5)	GI50 (LOX IMVI)	GI50 (U-251)	GI50 (NCI-H522)	GI50 (EKVX)	GI50 (NCI-H460)	GI50 (OVCAR-3)	GI50 (SF-295)	GI50 (UACC-257)	GI50 (UO-31)	GI50 (CCRF-CEM)	GI50 (HCT-116)	GI50 (Malme-3M)	GI50 (RPMI-8226)	GI50 (HCT-15)	GI50 (M14)	GI50 (HCC 2998)	GI50 (UACC-62)	GI50 (SF-268)	GI50 (OVCAR-8)
CNc1ccc2c(c1)[C@@]1(C)c3ccccc3[C@@H](C2)N1C	17.7 µM (inactive)	19.5 µM (inactive)	20.4 µM (inactive)	15.7 µM (inactive)	32.7 µM (inactive)	18.4 µM (inactive)	20.1 µM (inactive)	29.6 µM (inactive)	23.4 µM (inactive)	28.1 µM (inactive)	20.4 µM (inactive)	16.1 µM (inactive)	28 µM (inactive)	15.7 µM (inactive)	19 µM	21.6 µM (inactive)	20.1 µM (inactive)	16.4 µM (inactive)	44.4 µM (inactive)	
CC(C)(C)OC(=O)NC(Cc1ccc(OCc2ccccc2)cc1)C(=O)NC(COCc1ccccc1)C(=O)Oc1c(Cl)c(Cl)c(Cl)c(Cl)c1Cl (centres undefined)	17.3 µM (inactive)	23.6 µM (inactive)	18 µM (inactive)	22.2 µM (inactive)	23.1 µM (inactive)	17.6 µM (inactive)	14.9 µM (inactive)	19.2 µM (inactive)	27.6 µM (inactive)	17 µM (inactive)	55.2 µM (inactive)	16.4 µM (inactive)	25.1 µM (inactive)	37.7 µM (inactive)	17.8 µM	20.8 µM (inactive)	20.1 µM (inactive)	16.2 µM (inactive)	24.4 µM (inactive)	21.5 µM (inactive)
COc1ccc(C2C3C(=O)C=CC(=O)C3[C@@H]2C)cc1OC (some centres undefined)	> 100 µM (inactive)	42.3 µM (inactive)	> 100 µM (inactive)	17.5 µM (inactive)	> 100 µM (inactive)	> 100 µM (inactive)	> 100 µM (inactive)	> 100 µM (inactive)	> 100 µM (inactive)	73.5 µM (inactive)	> 10 µM (inactive)	28.4 µM (inactive)	> 100 µM (inactive)	27.6 µM (inactive)	23.6 µM	> 100 µM (inactive)	> 100 µM (inactive)	> 100 µM (inactive)	> 100 µM (inactive)	> 100 µM (inactive)
CCOc1ccc(NC(=O)C(=O)CC(=O)c2c(C)[n+]([O-])c3ccccc3[n+]2[O-])cc1	> 100 µM (inactive)	> 100 µM (inactive)	> 100 µM (inactive)	> 100 µM (inactive)	> 100 µM (inactive)	> 100 µM (inactive)	> 100 µM (inactive)	> 100 µM (inactive)	> 100 µM (inactive)	> 100 µM (inactive)	> 100 µM (inactive)	> 100 µM (inactive)	> 100 µM (inactive)	> 100 µM (inactive)	> 100 µM	> 100 µM (inactive)	> 100 µM (inactive)	> 100 µM (inactive)	> 100 µM (inactive)	> 100 µM (inactive)
CCCCCCCCCCCC(=O)OCC(C[As](=O)(O)O)OC(=O)CCCCCCCCCCC (centres undefined)	1.75 µM (inactive)	4.76 µM (inactive)	1.54 µM (inactive)	2.13 µM (inactive)	7.74 µM (inactive)	4.05 µM (inactive)	8.81 µM (inactive)	10.4 µM (inactive)	7.52 µM (inactive)	12.4 µM (inactive)	3.72 µM (inactive)	5.61 µM (inactive)	2.48 µM (inactive)	7.4 µM (inactive)	8.39 µM	1.97 µM (inactive)	6.22 µM (inactive)	2.03 µM (inactive)	5.09 µM (inactive)	11.7 µM (inactive)
